# pEC50: −log10 of the molar value.
# Experiments:
# Ba/F3-Syk cells = target: T1, Ba/F3-Syk cells (Homo sapiens, UniProt P43405); assay: Ba/F3 Proliferation Assay, Ba/F3-Syk cells (Resazurin); assay type: cell-based; details: 48-hour incubation
# T1 construct: fused on or other part: Possible but unprinted fusion partner: TEL (ETV6), the usual partner for Ba/F3 lines transformed by Syk; Nothing on a partner is printed
# Method: (§1) Ba/F3-Syk and Ba/F3-WT (wild type) cells were maintained at ≤1×10^6 cell/mL in RPMI (Life Technologies) with 10% FBS at 37° C. and 5% CO2 for a maximum of four weeks. Ba/F3-WT additionally contained 2 ng/mL mIL-3 (R&D Systems) to induce cellular growth. Cells were counted and dispensed at 5000 cells/well using a Multidrop Liquid Dispenser in a volume of 45 μL into black 384-well TC treated plates (Greiner) and incubated for four hours in complete media (+mIL-3 for Ba/F3-WT). Compounds were serially diluted in 100% DMSO, prior to an intermediate dilution in RPMI media. 5 μL of compound (0.4% final DMSO) was added to the cells, followed by a 48-hour incubation period. 5 μL of Resazurin (60 μM final) was then added and cells were incubated at 37° C. for three hours, before fluorescence (λex530/λem585) was measured using an Ensight Multimode Plate Reader (Perkin Elmer).
# [1] = system: Ba/F3-WT (wild type) cells; assay: Ba/F3 Proliferation Assay, Ba/F3-WT (wild type) cells with mIL-3 (Resazurin); assay type: cell-based; details: Mus musculus, BaF3, 48 h, Ba/F3-WT cells +mIL-3, 48-hour incubation
# Method: as §1
SMILES,pEC50 (Ba/F3-Syk cells),pEC50 [1]
"CC1(C)CNC[C@@H](COc2nc(-c3cnn4c3CCCC4)cc3ncccc23)O1 [Compound 10.3, 5-{[(2S)-6,6-dimethylmorpholin-2-yl]methoxy}-7-(4H,5H,6H,7H-pyrazolo[1,5-a]pyridin-3-yl}-1,6-naphthyridine]",6.44,< 5.00
"FC(F)Cn1ccc(-c2cc(OC[C@@H]3CNCCCO3)c3nccnc3c2)c1 [Compound 8.20, 7-[1-(2,2-difluoroethyl)-1H-pyrrol-3-yl]-5-{[(2S)-1,4-oxazepan-2-yl]methoxy}quinoxaline]",7.56,5.73
"CC[C@@]1(COc2nc(-c3cnn(C(C)C)c3)cc3ncccc23)CNCCO1 [Compound 10.16, 5-{[(2S)-2-ethylmorpholin-2-yl]methoxy}-7-[1-(propan-2-yl)-1H-pyrazol-4-yl]-1,6-naphthyridine]",6.59,5.92
"Cn1ccc(-c2cc3ncccc3c(OC[C@@H]3CNC(C)(C)CCO3)n2)c1 [Compound 2.79, 5-{[(2S)-5,5-dimethyl-1,4-oxazepan-2-yl]methoxy}-7-(1-methyl-1H-pyrrol-3-yl)-1,6-naphthyridine]",6.22,< 5.00
"Cc1noc(C)c1-c1cc2ncccc2c(OC[C@@H]2CNCCO2)n1 [Compound 2.14, 7-(3,5-dimethyl-1,2-oxazol-4-yl)-5-{[(2S)-morpholin-2-yl]methoxy}-1,6-naphthyridine]",5.44,5.32
"Cn1cc(-c2cc3ncccc3c(OC[C@@H]3CNCC(C)(C)CO3)n2)cn1 [Compound 10.10, 5-{[(2S)-6,6-dimethyl-1,4-oxazepan-2-yl]methoxy}-7-(1-methyl-1H-pyrazol-4-yl)-1,6-naphthyridine]",6.57,5.43
"C[C@H]1CNC[C@@H](COc2nc(-c3ccn(C)c3)cc3ncccc23)O1 [Compound 2.75, 7-(1-methyl-1H-pyrrol-3-yl)-5-{[(2,6S)-6-methylmorpholin-2-yl]methoxy}-1,6-naphthyridine]",7.17,5.41
"Cn1ccc(-c2cc3ncccc3c(OC[C@@]3(C)CNCCO3)n2)c1 [Compound 10.9, 7-(1-methyl-1H-pyrrol-3-yl)-5-{[(2R)-2-methylmorpholin-2-yl]methoxy}-1,6-naphthyridine]",6.83,5.15
"CC(C)n1cc(-c2cc3ncccc3c(OC[C@@]3(C)CNCCO3)n2)cn1 [Compound 10.8, 5-{[(2R)-2-methylmorpholin-2-yl]methoxy}-7-[1-(propan-2-yl)-1H-pyrazol-4-yl]-1,6-naphthyridine]",7.09,5.72
"C[C@@H](Oc1cc(-c2cnn(C(C)(C)C)c2)cc2ncccc12)[C@@H]1CNCCO1 [Compound 14.2, 7-(1-tert-butyl-1H-pyrazol-4-yl)-5-[(1R)-1-[(2S)-morpholin-2-yl]ethoxy]quinoline]",7.09,5.73
"CC(C)n1cc(-c2cc3ncccc3c(OC[C@@H]3CNCC4(CC4)O3)n2)cn1 [Compound 2.62, 5-{[(5S)-4-oxa-7-azaspiro[2.5]octan-5-yl]methoxy}-7-[1-(propan-2-yl)-1H-pyrazol-4-yl]-1,6-naphthyridine]",7.50,5.89
"CC[C@H]1CNC[C@@H](COc2nc(-c3cnn(C(C)(C)C)c3)cc3ncccc23)O1 [Compound 2.92, 7-(1-tert-butyl-1H-pyrazol-4-yl)-5-{[(2S,6S)-6-ethylmorpholin-2-yl]methoxy}-1,6-naphthyridine]",7.54,6.22
"CC(F)(F)Cn1ccc(-c2cc3ncccc3c(OC[C@@H]3CNCCO3)n2)c1 [Compound 6.43, 7-[1-(2,2-difluoropropyl)-1H-pyrrol-3-yl]-5-{[(2S)-morpholin-2-yl]methoxy}-1,6-naphthyridine]",7.83,< 6.00
"CC1(C)CNC[C@@H](COc2nc(-c3ccn(C4CCC4)c3)cc3ncccc23)O1 [Compound 6.14, 7-(1-cyclobutyl-1H-pyrrol-3-yl)-5-{[(2S)-6,6-dimethylmorpholin-2-yl]methoxy}-1,6-naphthyridine]",7.84,5.74
"C[C@@H]1CNC[C@@H](COc2cc(-c3cnn(C)c3)cc3nccnc23)O1 [Compound 12.5, 7-(1-methyl-1H-pyrazol-4-yl)-5-{[(2S,6R)-6-methylmorpholin-2-yl]methoxy}quinoxaline]",7.29,5.89
"CC(C)(C)n1cc(-c2cc3ncccc3c(OC[C@@H]3CNCC(F)(F)CO3)n2)cn1 [Compound 2.86, 7-(1-tert-butyl-1H-pyrazol-4-yl)-5-{[(2S)-6,6-difluoro-1,4-oxazepan-2-yl]methoxy}-1,6-naphthyridine]",5.67,< 5.00
"CC(C)(C)n1cc(-c2cc3ncccc3c(OC[C@H]3O[C@H]4CCN[C@@H]3C4)n2)cn1 (single isomer, unassigned) [Compound 13.11]",5.71,< 5.00
"c1cnc2cc(-c3cncs3)nc(OC[C@@H]3CNCCO3)c2c1 [Compound 2.29, 5-{[(2S)-morpholin-2-yl]methoxy}-7-(1,3-thiazol-5-yl)-1,6-naphthyridine]",5.99,< 5.00

# Further lines, results first:
pEC50 (Ba/F3-Syk cells),pEC50 [1],SMILES
6.75,5.59,"c1cnc2cc(-c3cnn(C4CC4)c3)cc(OC[C@@H]3CNCCO3)c2c1 [Compound 3.3, 7-(1-cyclopropyl-1H-pyrazol-4-yl)-5-{[(2S)-morpholin-2-yl]methoxy} quinoline]"
5.87,< 5.00,"C1=C(c2cc(OC[C@@H]3CNCCO3)c3cccnc3c2)CCC1 [Compound 11.1, 7-(cyclopent-1-en-1-yl)-5-{[(2S)-morpholin-2-yl]methoxy}quinoline]"
6.87,5.43,"Cc1cc(-c2cc(OC[C@@H]3CNCCO3)c3cccnc3c2)cs1 [Compound 3.7, 7-(5-methylthiophen-3-yl)-5-{[(2S)-morpholin-2-yl]methoxy}quinoline]"
7.44,5.68,"CC1(C)CNC[C@@H](COc2cc(-c3ccn(C4CCC4)c3)cc3ncccc23)O1 [Compound 7.5, 7-(1-cyclobutyl-1H-pyrrol-3-yl)-5-{[(2S)-6,6-dimethylmorpholin-2-yl]methoxy}quinoline]"
7.72,5.81,"CC(C)n1cc(-c2cc3ncccc3c(OC[C@@H]3CNCCCO3)n2)cn1 [Compound 2.70, 5-{[(2S)-1,4-oxazepan-2-yl]methoxy}-7-[1-(propan-2-yl)-1H-pyrazol-4-yl]-1,6-naphthyridine]"
6.79,5.71,"O=C1CCn2cc(-c3cc(OC[C@@H]4CNCCO4)c4cccnc4c3)cc21 [Compound 3, 6-(5-{[(2S)-morpholin-2-yl]methoxy}quinolin-7-yl)-2,3-dihydro-1H-pyrrolizin-1-one]"
7.28,5.61,"c1cnc2cc(-c3ccn(C4CCC4)c3)nc(OC[C@@H]3CNCCO3)c2c1 [Compound 6.3, 7-(1-cyclobutyl-1H-pyrrol-3-yl)-5-{[(2S)-morpholin-2-yl]methoxy}-1,6-naphthyridine]"
7.00,5.01,"Cn1ccc(-c2cc(OC[C@@H]3CNCCCO3)c3cccnc3c2)c1 [Compound 3.22, 7-(1-methyl-1H-pyrrol-3-yl)-5-{[(2S)-1,4-oxazepan-2-yl]methoxy}quinoline]"
6.74,5.31,"F/C=C/n1cc(-c2cc3ncccc3c(OC[C@@H]3CNCCO3)n2)cn1 [Compound 6.8, 7-{1-[(1E)-2-fluoroethenyl]-1H-pyrazol-4-yl}-5-{[(2S)-morpholin-2-yl]methoxy}-1,6-naphthyridine]"
8.00,5.80,"CC(C)(C)n1cc(-c2cc(OC[C@@H]3CNCC4(CCC4)O3)c3cccnc3c2)cn1 [Compound 11.9, 7-(1-tert-butyl-1H-pyrazol-4-yl)-5-{[(6S)-5-oxa-8-azaspiro[3.5]nonan-6-yl]methoxy}quinoline]"
6.83,5.31,"O=C1CCn2cc(-c3cc4ncccc4c(OC[C@@H]4CNCCO4)n3)cc21 [Compound 2.78, 6-(5-{[(2S)-morpholin-2-yl]methoxy}-1,6-naphthyridin-7-yl)-2,3-dihydro-1H-pyrrolizin-1-one]"
5.63,5.13,"Cn1cc(-c2cc(OC[C@@H]3CNCCO3)c3cncnc3c2)cn1 [Compound 4.1, 7-(1-methyl-1H-pyrazol-4-yl)-5-{[(2S)-morpholin-2-yl]methoxy} quinazoline]"
7.45,5.71,"CC(C)(C)n1cc(-c2cc(OC[C@@H]3CNCC4(CC4)O3)c3cccnc3c2)cn1 [Compound 3.20, 7-(1-tert-butyl-1H-pyrazol-4-yl)-5-{[(5S)-4-oxa-7-azaspiro[2.5]octan-5-yl]methoxy}quinoline]"
5.76,< 5.00,"Cn1ccc(-c2cc3ncccc3c(OC[C@@H]3CNCCO3)n2)n1 [Compound 2.31, 7-(1-methyl-1H-pyrazol-3-yl)-5-{[(2S)-morpholin-2-yl]methoxy}-1,6-naphthyridine]"
7.53,5.57,"CC(C)n1ccc(-c2cc(OC[C@@H]3CNCC(C)(C)O3)c3cccnc3c2)c1 [Compound 7.4, 5-{[(2S)-6,6-dimethylmorpholin-2-yl]methoxy}-7-[1-(propan-2-yl)-1H-pyrrol-3-yl]quinoline]"
